Data on 7 compounds can be found in ChEMBL document CHEMBL3046155, “Synthesis and antimicrobial activity of 7-alkoxyhesperetin derivatives” (2011).

Common to all, as to assay type: functional
Assay [1] deals with Escherichia coli. The assay can be described thus: Antibacterial activity against Escherichia coli ATCC 25922 after 24 hr by two-fold serial dilution test. Conditions: ATCC 25922, 24 h.
Assay [2] concerns Bacillus subtilis. The assay can be described thus: Antibacterial activity against Bacillus subtilis ATCC 9372 after 24 hr by two-fold serial dilution test. Conditions: ATCC 9372, 24 h.
In assay [3] the test system is Staphylococcus aureus. Briefly: Antibacterial activity against Staphylococcus aureus ATCC 25923 after 24 hr by two-fold serial dilution test. Conditions: ATCC 25923, 24 h.
Another assay has as its system Proteus vulgaris. The assay can be described thus: Antibacterial activity against Proteus vulgaris ATCC 14153 after 24 hr by two-fold serial dilution test. Conditions: ATCC 14153, 24 h.
Assay [4] concerns Escherichia coli. The assay can be described thus: Antibacterial activity against Escherichia coli ATCC 25922 at 400 ug/mL after 24 hr by agar well diffusion assay. For orientation: Agar diffusion results depend on both activity and mobility in agar.
The subject of assay [5] is Staphylococcus aureus. Briefly: Antibacterial activity against Staphylococcus aureus ATCC 25923 at 400 ug/mL after 24 hr by agar well diffusion assay.
The subject of assay [6] is Bacillus subtilis. The assay can be described thus: Antibacterial activity against Bacillus subtilis ATCC 9372 at 400 ug/mL after 24 hr by agar well diffusion assay.

Values after ≈ are worked out from the molar mass of the structure shown. Active and inactive are the calls of the source. No cut-off for these calls is given here.

As to `CCCCOc1cc(O)c2c(c1)O[C@H](c1ccc(OC)c(O)c1)CC2=O` [7-BUTOXYHESPERETIN], the minimum inhibitory concentration (MIC) (in general, the lowest concentration that inhibits growth of the organism) in the assay on Escherichia coli [1] was found to be 100 mg/L (≈ 279 µM); against Bacillus subtilis [2], 100 mg/L (≈ 279 µM); in the assay on Staphylococcus aureus [3] it was 25 mg/L (≈ 69.8 µM); in the assay on Proteus vulgaris, 50 mg/L (≈ 140 µM).
As to `CCCCCCCCCCCCOc1cc(O)c2c(c1)O[C@H](c1ccc(OC)c(O)c1)CC2=O` [7-DODECYLOXYHESPERETIN], the MIC in the assay with Escherichia coli [1] turned out to be 50 mg/L (≈ 106 µM); in the assay on Bacillus subtilis [2], 50 mg/L (≈ 106 µM); against Staphylococcus aureus [3], 6.25 mg/L (≈ 13.3 µM); in the assay with Proteus vulgaris it was 12.5 mg/L (≈ 26.6 µM).
For the compound `COc1cc(O)c2c(c1)O[C@H](c1ccc(OC)c(O)c1)CC2=O` [7-METHOXYHESPERETIN], the MIC in the assay with Escherichia coli [1] was found to be 200 mg/L (≈ 632 µM); in the assay on Bacillus subtilis [2] it was 200 mg/L (≈ 632 µM); with Staphylococcus aureus [3], 100 mg/L (≈ 316 µM); against Proteus vulgaris it was 50 mg/L (≈ 158 µM).
With `CCCCCCCCOc1cc(O)c2c(c1)O[C@H](c1ccc(OC)c(O)c1)CC2=O` [7-OCTOXYHESPERETIN], the MIC with Escherichia coli [1] was found to be 25 mg/L (≈ 60.3 µM); against Bacillus subtilis [2], 50 mg/L (≈ 121 µM); with Staphylococcus aureus [3] it was 12.5 mg/L (≈ 30.2 µM); with Proteus vulgaris, 25 mg/L (≈ 60.3 µM).
`COc1ccc([C@@H]2CC(=O)c3c(O)cc(O)cc3O2)cc1O` [HESPERETIN]: the “diameter of the inhibition zone (DIZ)” value with Escherichia coli [4] and with Staphylococcus aureus [5] was “inactive” throughout. Besides, the MIC in the assay on Bacillus subtilis [2] came out at 200 mg/L (≈ 662 µM); against Proteus vulgaris it was 100 mg/L (≈ 331 µM).
In the case of `COc1ccc([C@@H]2CC(=O)c3c(O)cc(O[C@@H]4O[C@H](CO[C@@H]5O[C@@H](C)[C@H](O)[C@@H](O)[C@H]5O)[C@@H](O)[C@H](O)[C@H]4O)cc3O2)cc1O` [HESPERIDIN], the “diameter of the inhibition zone (DIZ)” value in the assay on Escherichia coli [4], with Staphylococcus aureus [5] and with Bacillus subtilis [6] was “inactive” throughout. The same compound gave an MIC against Proteus vulgaris of 200 mg/L (≈ 328 µM).
For the compound `CN[C@@H]1[C@H](O[C@H]2[C@H](O[C@H]3[C@H](O)[C@@H](O)[C@H](N=C(N)N)[C@@H](O)[C@@H]3N=C(N)N)O[C@@H](C)[C@]2(O)C=O)O[C@@H](CO)[C@H](O)[C@H]1O.CN[C@@H]1[C@H](O[C@H]2[C@H](O[C@H]3[C@H](O)[C@@H](O)[C@H](N=C(N)N)[C@@H](O)[C@@H]3N=C(N)N)O[C@@H](C)[C@]2(O)C=O)O[C@@H](CO)[C@H](O)[C@H]1O.O=S(=O)(O)O.O=S(=O)(O)O.O=S(=O)(O)O` [STREPTOMYCIN SULFATE], the MIC is 1.56 mg/L against Escherichia coli [1], 50 mg/L with Bacillus subtilis [2], 25 mg/L in the assay with Staphylococcus aureus [3] and 3.13 mg/L in the assay on Proteus vulgaris.
